Assay results published in patent US20240189258A1, “CANCER CELL GROWTH INHIBITING COMPOSITION AND PROCESSED FOOD” (HAGIHARA FARM PRODUCTION INSTITUTE CO., LTD., priority 2021, published 2024).

Columns and labels:
Jurkat cells = test: Growth inhibiting activity for human leukemia T cell line Jurkat cells (Cell Count Reagent SF, cell viability); assay type: cell-based; conditions: 72 hours culture, cell viability by absorbance A450-A630
Procedure: <2. Evaluation of growth inhibiting activity of compounds for human leukemia T cell line Jurkat cells>
The cancer cell growth-inhibiting activity of each sample described above was examined using Jurkat cells, which are from a human leukemia T cell line.
In each well of a 96-well plate, 50 μL of a Jurkat cell suspension prepared at 1×10^5 cells/mL was seeded. A DMSO solution of the evaluation sample was diluted 500 times with the culture medium. Immediately after that, 50 μL of the diluted sample solution was added to the cells to start a cell treatment. After the samples were stirred for 30 seconds using a microplate reader, the cells were cultured in an incubator. After 72 hours, 10 μL of Cell Count Reagent SF was added to each well. After a color reaction was performed in the incubator for 2 to 3 hours, the absorbance at 450 nm and 630 nm was measured using a microplate reader. Cell viability was determined using the following formula (F1).
Cell viability (%)=[(As−Ab)/(Ac−Ab)]×100 (F1)
Note that As, Ab, and Ac are as follows. • As: absorbance of evaluation well • Ab: absorbance of negative control well • Ac: absorbance of control well
All the “absorbance” values in the above-described formula were calculated by subtracting the absorbance at 630 nm (referred to as A630) from the absorbance at 450 nm (referred to as A450) , that is, “A450-A630”. Further, IC50 was calculated by linear approximation on a logarithmic graph using two concentrations that most tightly enclose the 50% cell viability point.

Structure (SMILES)	IC50 (Jurkat cells; Homo sapiens) [nM]	melting point [°C]	IC50 (Jurkat cells) [nM]
C/C(=C\CNC(C)(C)C)CCC[C@H](C)CCC[C@H](C)CCCC(C)C (racemic) [PT23, (7RS,11RS,E)-1-t-butylamino-3,7,11,15-tetramethyl-2-hexadecene]	3100	–	–
C/C(=C\Cn1c(N)ccnc1=O)CCC[C@H](C)CCC[C@H](C)CCCC(C)C (racemic) [PT28, 6-amino-1-((7R,11R,E)-3,7,11,15-tetramethyl-2-hexadecenyl)pyrimidin-2(1H)-one]	3200	101 to 102	–
C/C(=C\CN)CCC[C@H](C)CCC[C@H](C)CCCC(C)C (racemic) [rac-PT10, (7R,11R,E)-1-amino-3,7,11,15-tetramethyl-2-hexadecene, reference compound]	3800	–	–
C/C(=C\CO)CCC[C@H](C)CCC[C@H](C)CCCC(C)C (racemic) [rac-PTO, phytol, reference compound]	–	–	29800

Further lines, results first:

IC50 (Jurkat cells; Homo sapiens) [nM]	melting point [°C]	IC50 (Jurkat cells) [nM]	Structure (SMILES)
2800	–	–	C/C(=C\CN(C)C)CCC[C@H](C)CCC[C@H](C)CCCC(C)C (racemic) [PT21, (7RS,11RS,E)-1-N,N-dimethylamino-3,7,11,15-tetramethyl-2-hexadecene]
2600	–	–	C/C(=C\CNC(C)C)CCC[C@H](C)CCC[C@H](C)CCCC(C)C (racemic) [PT22, (7RS,11RS,E)-1-isopropylamino-3,7,11,15-tetramethyl-2-hexadecene]
1410	199 to 201	–	C/C(=C\C[N+](C)(C)C)CCC[C@H](C)CCC[C@H](C)CCCC(C)C.[Br-] (racemic) [PT26, (7RS,11RS,E)-N,N,N-trimethyl-3,7,11,15-tetramethyl-2-hexadecenaminium bromide]
480	132 to 135	–	CC[N+](CC)(CC)C/C=C(\C)CCC[C@H](C)CCC[C@H](C)CCCC(C)C.[Br-] (racemic) [PT27, (7RS,11RS,E)-N,N,N-triethyl-3,7,11,15-tetramethyl-2-hexadecenaminium bromide]
